Several values for one entry are separate records, joined by “and”; a condition that tells them apart may be missing. Identical values can stand only once. Like-named read-outs stand apart in the source and are kept apart here.
Key:
[1] = Toxicity Model (TOX), rotorod, mice; assay type: in vivo; conditions: male, CFI, mouse, in vivo, ip; mice
From the text: To investigate the neurotoxicity levels of the huperzine compounds, the Toxicity Model (TOX) using a rotorod is employed. The animals (e.g., mice) were trained to stand on an accelerating rotorod rotating at 10 rev min^−1 with a diameter of 3.2 cm. The trained animal can be given the huperzine compound at various doses and the effect of huperzine on their motor skills can be determined. The dose at which the animals fell off the rotorod is the toxic dose.
The neurotoxicity of huperzine was tested in the rotorod test. The mice were trained to stand on an accelerating rotorod rotating at 10 rev min^−1 with a diameter of 3.2 cm. The trained animals were given the huperzine at various doses and the effect of huperzine on their motor skills was determined. The dose at which the animals fell off the rotorod was the toxic dose.

patients = conditions: human, in vivo; cited from earlier work
[2] = system: 6 Hz limbic seizures (corneal stimulation); conditions: for N/F, Time to Peak Effect: IP, 32 mA series; for COMMENT (observed effect): ip
From the text: (§1) These three tests are highly predictive of efficacy against human generalized tonic-clonic (MES), generalized myoclonic (sc PTZ), and refractory limbic (6 Hz) seizures, respectively.
(§2) Male, 18-25 g CFI mice and 100-125 g Sprague-Dawley rats (Charles River Laboratories, Wilmington, Mass.) were used as the experimental animals. Animals were pretreated intraperitoneally (i.p.) with increasing doses of HupA and tested at various times after administration for protection against tonic extension (MES test), minimal clonic (s.c. PTZ test), limbic (6 Hz), or secondarily generalized (kindled rat) seizures. Seizure testing was carried out as follows. For the MES and 6 Hz tests, a drop of anesthetic/electrolyte solution (0.5% tetracaine hydrochloride in 0.9% saline) was applied to the eyes of each animal prior to placement of the corneal electrodes.

[3] = system: 6 Hz limbic seizures (corneal stimulation); assay: animal or person; conditions: Mus musculus, ip
From the text: as §1, §2

[4] = system: subcutaneous Metrazol (pentylenetetrazol) seizures; conditions: i.p.
Experimental: Male, 18-25 g CFI mice and 100-125 g Sprague-Dawley rats (Charles River Laboratories, Wilmington, Mass.) were used as the experimental animals. Animals were pretreated intraperitoneally (i.p.) with increasing doses of HupA and tested at various times after administration for protection against tonic extension (MES test), minimal clonic (s.c. PTZ test), limbic (6 Hz), or secondarily generalized (kindled rat) seizures. Seizure testing was carried out as follows. For the MES and 6 Hz tests, a drop of anesthetic/electrolyte solution (0.5% tetracaine hydrochloride in 0.9% saline) was applied to the eyes of each animal prior to placement of the corneal electrodes. […] The ability of the test substance to prevent seizures induced by 6 Hz corneal stimulation (32 mA, 3 sec duration) was assessed at various times after i.p. administration of 1 mg/kg HupA For assessment of hippocampal kindling, HupA (1 mg/kg, i.p.) was administered.

[5] = system: maximal electroshock (MES) tonic extension seizures; assay: Maximal Electroshock (MES) model, rats; conditions: oral, 1 mg/kg
From the text: (§3) The maximal electroshock (MES) model is an art recognized test, useful to investigate the efficacy of therapeutic agents against grand mal seizures. Maximal seizures were induced by the application of electrical current to the brain via corneal electrodes. The stimulus parameters for mice were 50 mA in a pulse of 60 Hz for 200 ms.
(§4) Male, 18-25 g CFI mice and 100-125 g Sprague-Dawley rats (Charles River Laboratories, Wilmington, Mass.) were used as the experimental animals. Animals were pretreated intraperitoneally (i.p.) with increasing doses of HupA and tested at various times after administration for protection against tonic extension (MES test), minimal clonic (s.c. PTZ test), limbic (6 Hz), or secondarily generalized (kindled rat) seizures. Seizure testing was carried out as follows. For the MES and 6 Hz tests, a drop of anesthetic/electrolyte solution (0.5% tetracaine hydrochloride in 0.9% saline) was applied to the eyes of each animal prior to placement of the corneal electrodes. […] Animals not displaying secondarily generalize seizures were considered protected.

[6] = system: hippocampal kindled seizures; assay: Rapid hippocampal kindling model, rat; assay type: in vivo; conditions: 1 mg/kg, i.p., time of test ¼-3 h
Experimental: Seizure testing was carried out as follows.

[7] = system: minimal motor impairment (ataxia, abnormal gait and stance); conditions: rat, in vivo
[8] = system: maximal electroshock (MES) tonic extension seizures; assay: Maximal Electroshock (MES) model, mice; conditions: for Mice protected against seizures, MES: 3 mg/kg; for N/F, MES time course: mice, I.P., 5 mg/kg
From the text: as §3, §4

[9] = system: formalin-induced paw-licking; assay: Formalin test (paw licking/biting) in mice; assay type: in vivo; conditions: for Duration of Licking: Trial 1, one value per animal #01-08; for activity at 0.5 mg/kg / activity at 1 mg/kg: Mus musculus, ip, read-out: Area Under the Curve, % of Control
Experimental: The formalin test for antinociceptive activity is described in numerous publications, e.g., Hunskaar, S., O. B. Fasmer, and K. Hole, J. Neurosci. […] The formalin test is accepted as an art recognized model of persistent clinical pain.
Male Swiss Webster NIH mice (20-30 g; Harlan, San Diego, Calif.) were used in the experiments described herein. Food was withdrawn on the day of experiment. Mice were placed in Plexiglass jars for at least 1 hour to accommodate to the environment. Following the accommodation period, mice were weighed and given either a huperzine compound administered intraperitoneal (i.p.) or oral (p.o.), or the appropriate volume of vehicle (10% Tween-80). Fifteen minutes after the i.p. dosing, and 30 minutes after the p.o. dosing mice were injected with formalin (20 μL of 5% formaldehyde solution in saline) into the dorsal surface of the right hind paw. Mice were transferred to the Plexiglass jars and monitored for the amount of time spent licking or biting the injected paw. Periods of licking and biting were recorded in 5 minute intervals for 40 minutes after the formalin injection. All experiments were done in a blinded manner. The early phase (acute) of the formalin response is measured as licking/biting between 0-5 minutes, and the late phase (inflammatory) is measured from 10-40 minutes. Differences between vehicle and drug treated groups are analyzed by one-way analysis of variance (ANOVA). A P value<0.05 is considered significant.
Fifteen minutes after the i.p. dosing, mice were injected with formalin (20 μL of 5% formaldehyde solution in saline) into the dorsal surface of the right hind paw. Periods of licking and biting were recorded in 5 minute intervals for 40 minutes after the formalin injection as shown below in Tables 1 and 2. All experiments were done according to the art-recognized Anticonvulsant Screening Program of the NINDS at the University of Utah.
Duration of paw licking in the tables below is expressed in seconds.

[10] = system: minimal motor impairment (ataxia, abnormal gait and stance); assay: Toxicity (TOX) / minimal motor impairment, rats; conditions: oral, 1 mg/kg
[11] = 0.5 mg/kg i.p., Inflammatory phase
[12] = 1 mg/kg i.p., Inflammatory phase

SMILES: C/C=C1\[C@H]2C=C(C)C[C@]1(N)c1ccc(=O)[nH]c1C2 [Huperzine A]
- TD50 [1]: 0.83 mg/kg
- Adverse effects in patients (patients): noted infrequently and were mainly cholinergic
- Protection in the mouse 6 Hz test (FIG. 1) ([2]; 0.8 mg/kg): time-dependent protection
- Maximum Protection Observed ([2]; 6 Hz, Mouse, 0.83 mg/kg, i.p., time of test 1 h): 100%
- N/F, Time to Peak Effect ([2]; 0.83 mg/kg, 0.25 h): 1/4
- N/F, Time to Peak Effect ([2]; 0.83 mg/kg, 0.5 h): 1/4
- N/F, Time to Peak Effect ([2]; 0.83 mg/kg, 1.0 h): 4/4
- N/F, Time to Peak Effect ([2]; 0.83 mg/kg, 2.0 h): 2/4
- N/F, Time to Peak Effect ([2]; 0.83 mg/kg, 4.0 h): 0/4
- Protection against 6 Hz seizures (FIG. 2) ([2]; mouse, in vivo): dose-dependent protection
- COMMENT (observed effect) ([2]; mouse, in vivo, 0.18 mg/kg): Minimal motor impairment
- COMMENT (observed effect) ([2]; mouse, in vivo, 0.2 mg/kg): Tremors
- COMMENT (observed effect) ([2]; mouse, in vivo, 0.35 mg/kg): Minimal motor impairment
- ED50 ([3]; 1 h, 22 mA): 0.279 mg/kg
- ED50 ([3]; 1 h, 32 mA): 0.339 mg/kg
- ED50 ([3]; 22 mA): 0.28 mg/kg
- ED50 ([3]; 32 mA): 0.34 mg/kg
- ED50 ([3]; 44 mA): 0.78 mg/kg
- N/F (mice showing an effect / mice tested), SCMET ([4]; 1 mg/kg SOL, 0.5 h): 3/5
- N/F (mice showing an effect / mice tested), SCMET ([4]; 1 mg/kg SOL, 4.0 h): 0/1
- N/F (mice showing an effect / mice tested), SCMET ([4]; 3 mg/kg SUS, 0.5 h): 1/1
- N/F (mice showing an effect / mice tested), SCMET ([4]; 3 mg/kg SUS, 4.0 h): 0/1
- N/F (mice showing an effect / mice tested), SCMET ([4]; 10 mg/kg SUS, 0.5 h): 0/1
- N/F (mice showing an effect / mice tested), SCMET ([4]; 10 mg/kg SUS, 4.0 h): 1/1
- Maximum Protection Observed ([4]; scPTZ, Mouse, 1 mg/kg, time of test 2 h): 25%
- N/F, MES time course ([5]; 0.25 h): 0/4
- N/F, MES time course ([5]; 0.5 h): 0/4
- N/F, MES time course ([5]; 1.0 h): 1/4
- N/F, MES time course ([5]; 2.0 h): 1/4
- N/F, MES time course ([5]; 4.0 h): 0/4
- N/F, MES time course ([5]; 6.0 h): 0/4
- Maximum Protection Observed [6]: 0%
- Behavioral impairment [7]: marked motor impairment
- Protection in the mouse MES test (FIG. 1) ([8]; 1 mg/kg): time-dependent protection
- Mice protected against seizures, MES ([8]; 30 minutes post administration): 33%
- Mice protected against seizures, MES ([8]; four hours post administration): 100%
- Maximum Protection Observed ([8]; MES, Mouse, 1 mg/kg, i.p., time of test 1 & 2 h): 75%
- N/F (mice showing an effect / mice tested), MES ([8]; i.p., 0.1 mg/kg SOL, 4.0 h): 0/4
- N/F (mice showing an effect / mice tested), MES ([8]; i.p., 0.3 mg/kg SOL, 4.0 h): 0/4
- N/F (mice showing an effect / mice tested), MES ([8]; i.p., 1 mg/kg SUS, 0.5 h): 0/1
- N/F (mice showing an effect / mice tested), MES ([8]; i.p., 1 mg/kg SUS, 4.0 h): 1/1
- N/F (mice showing an effect / mice tested), MES ([8]; i.p., 3 mg/kg SUS, 0.5 h): 1/3
- N/F (mice showing an effect / mice tested), MES ([8]; i.p., 3 mg/kg SUS, 4.0 h): 3/3
- N/F (mice showing an effect / mice tested), MES ([8]; i.p., 10 mg/kg SUS, 0.5 h): 1/1
- N/F (mice showing an effect / mice tested), MES ([8]; i.p., 10 mg/kg SUS, 4.0 h): 1/1
- N/F, MES time course ([8]; 0.5 h): 1/4
- N/F, MES time course ([8]; 1.0 h): 3/4
- N/F, MES time course ([8]; 2.0 h): 3/4
- N/F, MES time course ([8]; 4.0 h): 3/4
- N/F, MES time course ([8]; 6.0 h): 4/4
- Time spent licking ([9]; 0.5 mg/kg i.p.): impressive reduction in the time spent licking
- Duration of Licking ([9]; 0.5 mg/kg i.p., 0 min): 10.00 sec and 0.00 sec and 3.00 sec and 1.00 sec (4×) and 2.00 sec
- Duration of Licking ([9]; 0.5 mg/kg i.p., 5 min): 0.00 s
- Duration of Licking ([9]; 0.5 mg/kg i.p., 10 min): 0.00 s
- Duration of Licking ([9]; 0.5 mg/kg i.p., 15 min): 0.00 s
- Duration of Licking ([9]; 0.5 mg/kg i.p., 20 min): 0.00 s
- Duration of Licking ([9]; 0.5 mg/kg i.p., 25 min): 0.00 s
- Duration of Licking ([9]; 0.5 mg/kg i.p., 30 min): 0.00 s
- Duration of Licking ([9]; 0.5 mg/kg i.p., 35 min): 0.00 s
- Duration of Licking ([9]; 0.5 mg/kg i.p., 40 min): 0.00 s
- Area Under the Curve, Drug Tested ([9]; 0.5 mg/kg i.p., Acute phase): 7.3
- Area Under the Curve, Drug Tested [9, 11]: 0.0
- Inhibition of phase 1 (acute) and phase 2 (inflammatory) pain response ([9]; 1 mg/kg i.p., mice): complete inhibition
- Area Under the Curve, Drug Treated ([9]; 1 mg/kg i.p., Acute phase): 0.0
- Area Under the Curve, Drug Treated [9, 12]: 0.0
- activity at 0.5 mg/kg ([9]; 0.5 mg/kg i.p., Acute phase): 2.8%
- activity at 0.5 mg/kg [9, 11]: 0%
- activity at 1 mg/kg ([9]; 1 mg/kg i.p., Acute phase): 0%
- activity at 1 mg/kg [9, 12]: 0%
- Toxicity [10]: no toxicity in any of the animals

Source: US20060264455A1 (priority 2005, published 2006)
